The results in this text go back to patent US20260102387A1, “IMMUNOSUPPRESSIVE COMPOUNDS” (UNIVERSITÄT BASEL, priority 2022, published 2026).

The test has as its system coronin 1 promoter. The test can be described thus: EC50 analysis for coronin 1 promoter driven GFP inhibition by flow cytometry in RBL cells. The format is cell-based. Particulars: for rel. potency GFP inhibition: [EC50 GFP inhibition 13a]/[EC50 GFP inhibition compound of interest], 13a = 1.00; for coronin 1 promoter activity as assessed by GFP reduction: Amlodipine 3.125 μM, verapamil 8 μM, 48 h, flow cytometry. On the procedure: RBL cells that had been incubated with the indicated calcium channel blockers (amlodipine (3.125 μM) and verapamil (8 μM) concentrations for 48 h were analyzed by flow cytometry for any alteration in coronin 1 promoter driven GFP fluorescence. The results reveal no effect of calcium channel blockers on coronin 1 promoter activity (FIG. 4).
RBL cells expressing GFP under coronin 1 promoter and optionally with RBL cells expressing RFP under CMV promoter were mixed in equal numbers and incubated with the compounds at indicated concentrations for 48-65 h and analyzed by flow cytometry for alteration in coronin 1 promoter (GFP fluorescence), CMV promoter (RFP fluorescence) values. In addition, the cells were labelled with live-dead marker for assessing cell viability status by flow cytometry. Cycloheximide (CHX) serves as positive control and DMSO serves as negative controls. Effective Concentration (EC50) values for coronin 1 promoter inhibition via GFP fluorescence analysis, non-specific promoter inhibition via CMV promoter driven-RFP fluorescence analysis and cell viability via live/dead staining as a measure for toxicity in flow cytometry for compounds (10-22 and 50a-65a) are shown in Table 6 and Table 7. Based on the EC50 analysis of the inhibition of coronin 1 promoter driven GFP fluorescence the (4S,7R)-configurated eutomers were identified (Structures FIG. 9A-C). This is exemplified for compounds containing two stereocenters by eutomers 11c and 13a. […] Subsequent EC50 evaluations (Table 7) were performed with compound 13a as standard for relative potency normalized to a value of 1.00 (relative potency calculated as [EC50 GFP inhibition 13a]/[EC50 GFP inhibition compound of interest]).

Entries after “also recorded” stand apart in the source; their conditions may differ.

`CCOCCOCCOC(=O)C1=C(C)NC2=C(C(=O)C[C@H](c3ccccc3OC)C2)[C@@H]1c1cccc(O)c1` [64a, 2-(2-ethoxyethoxy)ethyl (4S, 7R)-4-(3-hydroxyphenyl)-7-(2-methoxyphenyl)-2-methyl-5-oxo-1,4,5,6,7,8-hexahydroquinoline-3-carboxylate]: the “rel. potency GFP inhibition” value is reported as 0.62. For the compound `CCC(C)(C)COC(=O)C1=C(C)NC2=C(C(=O)C[C@H](c3ccccc3OC)C2)[C@@H]1c1cccc(O)c1` [62a, 2,2-dimethylbutyl (4S, 7R)-4-(3-hydroxyphenyl)-7-(2-methoxyphenyl)-2-methyl-5-oxo-1,4,5,6,7,8-hexahydroquinoline-3-carboxylate], the “rel. potency GFP inhibition” value is on record as 0.10. As for `CCOC(=O)C1=C(C)NC2=C(C(=O)C[C@H](c3ccccc3OC)C2)[C@@H]1c1cccc(O)c1` [58a, ethyl (4S, 7R)-4-(3-hydroxyphenyl)-7-(2-methoxyphenyl)-2-methyl-5-oxo-1,4,5,6,7,8-hexahydroquinoline-3-carboxylate], the “rel. potency GFP inhibition” value is given as 0.36. The same measure, in the same setting: then `COc1ccccc1[C@H]1CC(=O)C2=C(C1)NC(C)=C(C(=O)OC[C@H]1CCCO1)[C@H]2c1cccc(O)c1` [12g, tetrahydro-2-furanylmethyl (4S, 7R)-4-(3-hydroxyphenyl)-7-(2-methoxyphenyl)-2-methyl-5-oxo-1,4,5,6,7,8-hexahydro-3-quinolinecarboxylate], with 1.00; and `CCCCOC(=O)C1=C(C)NC2=C(C(=O)C[C@H](c3ccccc3OC)C2)[C@@H]1c1cccc(O)c1` [59a, butyl (4S, 7R)-4-(3-hydroxyphenyl)-7-(2-methoxyphenyl)-2-methyl-5-oxo-1,4,5,6,7,8-hexahydroquinoline-3-carboxylate], with 0.18. Turning to `CCOC(=O)C1=C(COCCN)NC(C)=C(C(=O)OC)C1c1ccccc1Cl` (stereo not shown) [Amlodipine, reference compound], the “coronin 1 promoter activity as assessed by GFP reduction” value is reported as “no effect”. Turning to `COc1ccccc1[C@H]1CC(=O)C2=C(C1)NC(C)=C(C(=O)OC1CCOCC1)[C@@H]2c1cccc(O)c1` [13f, tetrahydro-2H-pyran-4-yl-4-(3-hydroxyphenyl)-7-(2-methoxyphenyl)-2-methyl-5-oxo-1,4,5,6,7,8-hexahydro-3-quinolinecarboxylate], the “rel. potency GFP inhibition” value was under 0.01. For `COc1ccccc1[C@H]1CC(=O)C2=C(C1)NC(C)=C(C(=O)O[C@H]1CCOC1)[C@H]2c1cccc(O)c1` [50a, tetrahydrofuran-3-yl (4S, 7R)-4-(3-hydroxyphenyl)-7-(2-methoxyphenyl)-2-methyl-5-oxo-1,4,5,6,7,8-hexahydroquinoline-3-carboxylate], the “rel. potency GFP inhibition” value was determined as 0.73. As for `COc1ccccc1[C@H]1CC(=O)C2=C(C1)NC(C)=C(C(=O)OC1CC(C)(C)OC(C)(C)C1)[C@H]2c1cccc(O)c1` [52a, 2,2,6,6-tetramethyltetrahydro-2H-pyran-4-yl (4S, 7R)-4-(3-hydroxyphenyl)-7-(2-methoxyphenyl)-2-methyl-5-oxo-1,4,5,6,7,8-hexahydroquinoline-3-carboxylate], the “rel. potency GFP inhibition” value is listed as 0.62. `COc1ccccc1[C@@H]1CC(=O)C2=C(C1)NC(C)=C(C(=O)OC1CCOCC1)[C@@H]2c1cccc(O)c1` [13d, tetrahydro-2H-pyran-4-yl-4-(3-hydroxyphenyl)-7-(2-methoxyphenyl)-2-methyl-5-oxo-1,4,5,6,7,8-hexahydro-3-quinolinecarboxylate]: the “rel. potency GFP inhibition” value stood at 0.09.

On to `COc1ccccc1[C@H]1CC(=O)C2=C(C1)NC(C)=C(C(=O)OC1CCCCC1)[C@H]2c1cccc(O)c1` [57a, cyclohexyl (4S, 7R)-4-(3-hydroxyphenyl)-7-(2-methoxyphenyl)-2-methyl-5-oxo-1,4,5,6,7,8-hexahydroquinoline-3-carboxylate], for which the “rel. potency GFP inhibition” value stood at 0.24.

In the case of `COc1ccccc1[C@H]1CC(=O)C2=C(C1)NC(C)=C(C(=O)OC1CCCC1)[C@H]2c1cccc(O)c1` [56a, cyclopentyl (4S, 7R)-4-(3-hydroxyphenyl)-7-(2-methoxyphenyl)-2-methyl-5-oxo-1,4,5,6,7,8-hexahydroquinoline-3-carboxylate], the “rel. potency GFP inhibition” value was 0.21. With `COc1ccccc1[C@H]1CC(=O)C2=C(C1)NC(C)=C(C(=O)O[C@H]1CO[C@H]3OCC[C@H]31)[C@H]2c1cccc(O)c1` [55a, (3R,3aS,6aR)-hexahydrofuro[2,3-b]furan-3-yl (4S, 7R)-4-(3-hydroxyphenyl)-7-(2-methoxyphenyl)-2-methyl-5-oxo-1,4,5,6,7,8-hexahydroquinoline-3-carboxylate], the “rel. potency GFP inhibition” value worked out at 0.61.

On to `CCC(CC)COC(=O)C1=C(C)NC2=C(C(=O)C[C@H](c3ccccc3OC)C2)[C@@H]1c1cccc(O)c1` [61a, 2-ethylbutyl (4S, 7R)-4-(3-hydroxyphenyl)-7-(2-methoxyphenyl)-2-methyl-5-oxo-1,4,5,6,7,8-hexahydroquinoline-3-carboxylate], for which the “rel. potency GFP inhibition” value was 0.10.

With `COc1ccccc1[C@H]1CC(=O)C2=C(C1)NC(C)=C(C(=O)O[C@@H]1CCOC1)[C@H]2c1cccc(O)c1` [50b, tetrahydrofuran-3-yl (4S, 7R)-4-(3-hydroxyphenyl)-7-(2-methoxyphenyl)-2-methyl-5-oxo-1,4,5,6,7,8-hexahydroquinoline-3-carboxylate], the “rel. potency GFP inhibition” value amounted to 1.23. On the same count and under the same terms, the value for `COc1ccccc1[C@H]1CC(=O)C2=C(C1)NC(C)=C(C(=O)OC1CCCOCC1)[C@H]2c1cccc(O)c1` (mixture of isomers) [54a, oxepan-4-yl 4-(3-hydroxyphenyl)-7-(2-methoxyphenyl)-2-methyl-5-oxo-1,4,5,6,7,8-hexahydroquinoline-3-carboxylate] was 0.88; that for `COc1ccccc1[C@H]1CC(=O)C2=C(C1)NC(C)=C(C(=O)OC1CC3CCC(C1)O3)[C@H]2c1cccc(O)c1` (stereo partly drawn) [53a, 8-oxabicyclo[3.2.1]octan-3-yl (4S, 7R)-4-(3-hydroxyphenyl)-7-(2-methoxyphenyl)-2-methyl-5-oxo-1,4,5,6,7,8-hexahydroquinoline-3-carboxylate] was 1.42; that for `COc1ccccc1C1CC(=O)C2=C(C1)NC(C)=C(C(=O)OC1CCOCC1)C2c1ccc(F)c(O)c1F` (racemic) [67b, tetrahydro-2H-pyran-4-yl 4-(2,4-difluoro-3-hydroxyphenyl)-7-(2-methoxyphenyl)-2-methyl-5-oxo-1,4,5,6,7,8-hexahydroquinoline-3-carboxylate] was 0.25. On the same count and under the same terms, the value for `COc1ccccc1[C@H]1CC(=O)C2=C(C1)NC(C)=C(C(=O)OCCCC(C)(C)C)[C@H]2c1cccc(O)c1` [63a, 4,4-dimethylpentyl (4S, 7R)-4-(3-hydroxyphenyl)-7-(2-methoxyphenyl)-2-methyl-5-oxo-1,4,5,6,7,8-hexahydroquinoline-3-carboxylate] was 0.07; that for `COc1ccccc1[C@@H]1CC(=O)C2=C(C1)NC(C)=C(C(=O)OC1CCOCC1)[C@H]2c1cccc(O)c1` [13e, tetrahydro-2H-pyran-4-yl-4-(3-hydroxyphenyl)-7-(2-methoxyphenyl)-2-methyl-5-oxo-1,4,5,6,7,8-hexahydro-3-quinolinecarboxylate] was under 0.01; that for `COc1ccccc1[C@H]1CC(=O)C2=C(C1)NC(C)=C(C(=O)OC1CCOCC1)C2c1ccc(F)c(O)c1` (mixture of isomers) [66b, tetrahydro-2H-pyran-4-yl 4-(4-fluoro-3-hydroxyphenyl)-7-(2-methoxyphenyl)-2-methyl-5-oxo-1,4,5,6,7,8-hexahydroquinoline-3-carboxylate] was 0.25. Consider `COc1ccccc1[C@H]1CC(=O)C2=C(C1)NC(C)=C(C(=O)OCC(C)(C)C)[C@H]2c1cccc(O)c1` [60a, neopentyl (4S, 7R)-4-(3-hydroxyphenyl)-7-(2-methoxyphenyl)-2-methyl-5-oxo-1,4,5,6,7,8-hexahydroquinoline-3-carboxylate], for which the “rel. potency GFP inhibition” value is 0.20. Consider `COc1ccc(CCN(C)CCCC(C#N)(c2ccc(OC)c(OC)c2)C(C)C)cc1OC` (stereo not shown) [verapamil, reference compound], for which the “coronin 1 promoter activity as assessed by GFP reduction” value is listed as “no effect; also recorded: not inhibiting coronin 1 promoter activity”. Take `COc1ccccc1[C@H]1CC(=O)C2=C(C1)NC(C)=C(C(=O)OC1(C)CCOCC1)[C@H]2c1cccc(O)c1` [51a, 4-methyltetrahydro-2H-pyran-4-yl (4S, 7R)-4-(3-hydroxyphenyl)-7-(2-methoxyphenyl)-2-methyl-5-oxo-1,4,5,6,7,8-hexahydroquinoline-3-carboxylate]: the “rel. potency GFP inhibition” value is on record as 1.13. On to `CCCCCCOCCOCCOCCOC(=O)C1=C(C)NC2=C(C(=O)C[C@H](c3ccccc3OC)C2)[C@@H]1c1cccc(O)c1` [65a, 2-(2-(2-(hexyloxy)ethoxy)ethoxy)ethyl (4S, 7R)-4-(3-hydroxyphenyl)-7-(2-methoxyphenyl)-2-methyl-5-oxo-1,4,5,6,7,8-hexahydroquinoline-3-carboxylate], for which the “rel. potency GFP inhibition” value was 0.12.
